Test results from patent US20250186364A1, “COMBINATION OF ANTISPASMODIC AND ANESTHETIC AGENTS FOR TOPICAL PRODUCTS AND THEIR METHOD OF USE” (priority 2023, published 2025).
“Also recorded” adds a separate entry of the source.

What was measured:
[1] = tested on: hind limb muscle; assay: Rat hind limb muscle twitch study; format: in vivo, Sprague-Dawley rats
Method: FIG. 1 is a schematic diagram of a validated muscle twitch experimental set-up in the present disclosure. Here anesthetized Sprague-Dawley rats were prepared for muscle contraction assessment of their hindlimbs. The hind limbs were shaved and secured at the knee and ankle joints to prevent movement. The distal tendon of the targeted muscle was connected to a high-sensitivity force transducer to measure contractile force with precision. Electrical stimulation was delivered via electrodes positioned on the sciatic nerve to evoke muscle contractions. Vehicle (control study) or 5% w/w of HD was topically applied to the dermal area corresponding to the muscle group under study, ensuring proximity for local diffusion and effect.
A study was performed to evaluate the effects of HD on muscle contractility using a validated in vivo rat model. The experimental setup was meticulously designed to measure the contractile force of the hind limb muscle in response to electrical stimulation of the sciatic nerve, providing a quantitative assessment of muscle relaxation and contraction dynamics in the presence of HD. Anesthetized Sprague-Dawley rats were used for this study, ensuring minimal variability in response to HD application. Hind limbs were shaved and then immobilized at the knee and ankle joints to isolate the effect of the targeted muscle group. The distal tendon of the targeted muscle was connected to a high-sensitivity force transducer for accurate measurement of contractile force. An electrical stimulation was applied via electrodes strategically placed on the sciatic nerve, designed to evoke muscle contractions with controlled frequency to determine amplitude, and duration parameters. A specific concentration of 5% w/w of HD in lubricating lotion, prepared on the same day, was topically applied to the skin overlaying the muscle group under study and the control group received a vehicle (lubricating lotion) treatment under identical conditions.

[2] = tested on: hairless mice; assay: Rotarod performance study in hairless mice; format: in vivo; details: 5% w/w HD topical
Method: FIG. 7 is an illustration of a Rota Rod apparatus in the present disclosure. Once the mice were trained, the rod was rotated at a constant speed of 20 rpm. Then the mice were placed on the rotating rod and length of time they could stay on the rotating rod was measured in seconds.
The Rotarod study was to investigate the skeletal muscle relaxant effects of HD, specifically its impact on motor coordination and balance in hairless mice. The study was structured to assess both the kinetics of HD's effect over time and its efficacy in inducing muscle relaxation. Efficacy of HD was determined post-treatment at intervals of 15, 30, 60, 75, 90 minutes, and another to evaluate the efficacy, particularly noting the peak effect at 30 minutes post-application. Control and Treatment Groups: Each stage included a control group receiving vehicle (Aloe Vera Gel) and a test group treated with HD, 5% w/w HD (0.5 g) in the vehicle (9.5 g Aloe Vera Gel), prepared right before the study. The topical treatment was applied to the thighs of all four limbs for each mouse.

[3] = tested on: mouse extensor digitorum longus muscles; assay: Isolated mouse muscle contraction study
Method: FIG. 4 is a schematic diagram of a validated isolated mouse muscle contraction study. Muscles were anchored at one end to the chamber floor and connected at the other end to a force transducer. After establishing a baseline response to the electrical field stimulation, HD was added to the buffer at concentrations ranging from 0.01% w/w to 1% w/w, and the impact on muscle contractile force was recorded over time at the frequency of 150 Hz. Additionally, muscles were subjected to varying frequencies of electrical stimulation to evaluate the frequency-dependent effects of HD.
This subsequent study was aimed to elucidate the specific effects of HD on isolated muscle tissue from mice, to quantify its potential use as a muscle relaxant. The study's design allowed for the controlled assessment of muscle contractility in a physiological buffer, minimizing external variables present in in vivo models. Muscle Isolation: The mouse extensor digitorum longus muscles were carefully dissected and mounted in a tissue bath super-fused with oxygenated physiological buffer, ensuring tissue viability throughout the experiment (FIG. 4). Baseline Measurement: Initial contractile responses were established via electrical stimulation at various frequencies, setting a comparative baseline for subsequent HD application effects. HD Application: Differing concentrations of HD (ranging from 0.01% to 1%) were introduced to the buffer. The muscle's contractile force (amplitude, which is the maximum contractile force) was determined to assess HD's concentration-dependent effects at a fixed frequency of 150 Hz (FIG. 6). Stimulation Frequency Adjustment: To explore the frequency-dependent nature of HD's action, muscles underwent varied frequencies of electrical stimulation at a fixed concentration of 0.5% of HD. This protocol aimed to simulate conditions of sporadic muscle spasms.

CCCCC(O)CO (stereo not shown) [HD, 1,2-hexanediol]
duration of muscle contraction ([1]; 5% w/w HD topical vs vehicle, p<0.05): statistically significant reduction | mean percentage decline in force output from initial peak contraction ([1]; 5% w/w HD topical, compared to vehicle group): quantitatively significant | ability to maintain tetanic contraction throughout the stimulus period ([1]; 5% w/w HD topical, electrical stimulation at 150 Hz): unable to maintain tetanic contraction; also recorded: failing to maintain tetanic tension | recovery of mice from the muscle relaxant effect (safety) [2]: all mice recovered | time spent on Rota Rod ([2]; 30 and 60 minutes post treatment, 20 rpm, vehicle 60 seconds): significant decrease | recovery from the muscle relaxant effect ([2]; by 75 minutes): recovery trend | time of most notable muscle relaxant activity post-treatment ([2]; preliminary experiments (data not shown)): 30 min | inhibitory effect on muscle contraction ([3]; 0.01% HD in buffer, 150 Hz): No significant inhibitory effect; also recorded: minimal effects | reduction in contractile force ([3]; 0.1% HD in buffer, 150 Hz, vs vehicle controls): ~44% | frequency-dependent decrease in torque generation (force-frequency relationship) ([3]; 0.5% HD, varied stimulus frequencies, vs vehicle, n=5): inhibition is more complete at higher frequencies of stimulation; also recorded: more significant inhibitory effect
